Results on seven molecules are retold here after PubChem BioAssay (NCI).

Among the test systems are BT-549 breast; COLO 205 colon; DU-145 prostate; HS 578T breast; HT29 colon; IGROV1 ovarian; LOX IMVI melanoma; MCF7 breast; MDA-MB-435; NCI-H226 lung; NCI/ADR-RES ovarian; OVCAR-8 ovarian; RXF 393 renal; SF-295 CNS; SK-OV-3 ovarian; SN12C renal; SNB-19 CNS; SNB-75 CNS; SR leukemia; T-47D breast.
What all share (test): inhibition of tumour cell growth, NCI panel, 48 h

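These data come from cells grown in 96-well plates and exposed to compound for 48 hours at five concentrations. Definition used: TGI = concentration required for complete inhibition of growth.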 Bounds are passed on as bounds.

For the molecule `COC(=O)c1ccccc1C1CN=NC12Cc1ccccc1C2=O` (stereo not given), the TGI with BT-549 breast, in the test with COLO 205 colon, in the test on DU-145 prostate, in the test with HS 578T breast, in the test with HT29 colon and in the test on IGROV1 ovarian was above 100 µM each time. Also, the TGI with LOX IMVI melanoma, with MCF7 breast, in the test with MDA-MB-435, in the test with NCI-H226 lung, with NCI/ADR-RES ovarian and with OVCAR-8 ovarian was above 100 µM each time. For the same molecule, the TGI in the test on RXF 393 renal, with SF-295 CNS, in the test with SK-OV-3 ovarian, in the test on SN12C renal, in the test on SNB-19 CNS and in the test with SNB-75 CNS was above 100 µM throughout. For the same molecule, the TGI in the test with SR leukemia and in the test on T-47D breast was above 100 µM throughout.

Turning to `CC1=CC[C@H](C(C)C)C(C(O)[C@@H](C)O[Si](c2ccccc2)(c2ccccc2)C(C)(C)C)C1=O` (stereo not given in full), the TGI was 37.5 µM in the test on BT-549 breast; 47.6 µM in the test on COLO 205 colon; 65.4 µM in the test on DU-145 prostate; 67 µM in the test on HS 578T breast; 31.7 µM with HT29 colon; 64.8 µM in the test on IGROV1 ovarian. The TGI came out at 45.7 µM in the test with LOX IMVI melanoma; 44.2 µM in the test with MCF7 breast; 51.3 µM in the test on MDA-MB-435; 44 µM in the test on NCI-H226 lung; 38.1 µM in the test on NCI/ADR-RES ovarian; 54.1 µM with OVCAR-8 ovarian. Moreover, the TGI with RXF 393 renal was determined as 30.8 µM; with SF-295 CNS it was 33.1 µM; in the test with SK-OV-3 ovarian, 79.7 µM; with SN12C renal, 37.9 µM; in the test on SNB-19 CNS, 33.5 µM; with SNB-75 CNS it was 54.4 µM. The TGI in the test with SR leukemia was above 100 µM; in the test with T-47D breast it was 46.1 µM.

Consider `CCN(CC)CCC(=O)c1ccc(C)cc1`, for which the TGI is 37.6 µM with BT-549 breast; 63.1 µM with COLO 205 colon; above 100 µM with DU-145 prostate; above 100 µM in the test with HS 578T breast; 49.6 µM in the test on HT29 colon; 37.6 µM in the test with IGROV1 ovarian. Besides, the TGI is above 100 µM with LOX IMVI melanoma; 17.4 µM with MCF7 breast; 33.6 µM in the test with MDA-MB-435; 63.6 µM in the test with NCI-H226 lung; 65.7 µM in the test on NCI/ADR-RES ovarian; above 100 µM in the test with OVCAR-8 ovarian. Further, the TGI is 31.1 µM in the test with RXF 393 renal; above 100 µM with SF-295 CNS; above 100 µM in the test with SK-OV-3 ovarian; above 100 µM in the test with SN12C renal; above 100 µM with SNB-19 CNS; above 100 µM in the test on SNB-75 CNS. Moreover, the TGI is 82.6 µM in the test with SR leukemia and 39.8 µM in the test with T-47D breast.

With `COc1ccc(N2C(=O)[C@H]3[C@H]4CC(C(C)(C)C)CC[C@H]4c4c(n(C)c5ccccc45)[C@H]3C2=O)cc1` (stereo not given in full), the TGI in the test on BT-549 breast is above 100 µM; in the test with COLO 205 colon, above 100 µM; in the test on DU-145 prostate, above 100 µM; with HS 578T breast it was above 86 µM; with HT29 colon it was above 100 µM; in the test on IGROV1 ovarian, above 100 µM. Also, the TGI was above 100 µM with LOX IMVI melanoma; above 46.4 µM with MCF7 breast; above 100 µM in the test with MDA-MB-435; above 100 µM with NCI-H226 lung; above 100 µM with NCI/ADR-RES ovarian; above 100 µM in the test on OVCAR-8 ovarian. The TGI in the test on RXF 393 renal is above 100 µM; in the test on SF-295 CNS it was above 100 µM; in the test with SK-OV-3 ovarian, above 100 µM; in the test with SN12C renal, above 56.2 µM; with SNB-19 CNS, above 100 µM; in the test with SNB-75 CNS, above 100 µM. Also, the TGI in the test on SR leukemia and in the test on T-47D breast was above 100 µM in each case.

Take `O=c1[nH]/c(=C/c2ccc(OCc3ccccc3)cn2)c(=O)[nH]/c1=C/c1ccc(F)cc1`: the TGI was above 58.5 µM in the test with BT-549 breast; 6.75 µM in the test on COLO 205 colon; above 34.8 µM in the test with DU-145 prostate; 15.7 µM with HS 578T breast; above 32.4 µM in the test with HT29 colon; 13.1 µM in the test with IGROV1 ovarian. Further, the TGI is above 100 µM in the test with LOX IMVI melanoma; above 100 µM in the test on MCF7 breast; 0.687 µM in the test on MDA-MB-435; above 44.3 µM in the test with NCI-H226 lung; above 37 µM in the test on NCI/ADR-RES ovarian; above 47 µM in the test with OVCAR-8 ovarian. In addition, the TGI in the test with RXF 393 renal is 1.95 µM; in the test on SF-295 CNS, above 27.5 µM; in the test on SK-OV-3 ovarian it was above 37.8 µM; with SN12C renal, above 50.3 µM; in the test on SNB-19 CNS, above 34.2 µM; in the test on SNB-75 CNS, 4.73 µM. Also, the TGI in the test on SR leukemia was 1.29 µM; in the test with T-47D breast, above 55.6 µM.

Take `CCCCCCc1ccc(C(=O)NO)cc1`: the TGI is above 100 µM with BT-549 breast; above 100 µM in the test on COLO 205 colon; 68.4 µM in the test on DU-145 prostate; above 100 µM in the test with HS 578T breast; above 100 µM in the test on HT29 colon; above 100 µM in the test on IGROV1 ovarian. Also, the TGI with LOX IMVI melanoma was 76.9 µM; in the test with MCF7 breast, above 100 µM; in the test on MDA-MB-435, above 100 µM; in the test with NCI-H226 lung, above 100 µM; with NCI/ADR-RES ovarian it was 51.9 µM; with OVCAR-8 ovarian it was 35.6 µM. The TGI in the test with RXF 393 renal was above 100 µM; with SF-295 CNS, above 100 µM; in the test with SK-OV-3 ovarian it was above 100 µM; in the test with SN12C renal it was 64.5 µM; with SNB-19 CNS, above 100 µM; in the test on SNB-75 CNS, above 100 µM. In addition, the TGI in the test on SR leukemia stood at 39.2 µM; with T-47D breast, 82.9 µM.

Turning to `N#CC1C(=O)SC2c3ccccc3C(=O)c3ccccc3C12` (stereo not given), the TGI in the test with BT-549 breast, in the test on COLO 205 colon, in the test with DU-145 prostate, with HS 578T breast, in the test on HT29 colon and in the test on IGROV1 ovarian was above 10 µM in each case. The TGI with LOX IMVI melanoma, with MCF7 breast, in the test on MDA-MB-435, in the test on NCI-H226 lung, in the test on NCI/ADR-RES ovarian and in the test on OVCAR-8 ovarian was above 10 µM in each case. Besides, the TGI in the test with RXF 393 renal, in the test on SF-295 CNS, in the test with SK-OV-3 ovarian, in the test with SN12C renal, in the test on SNB-19 CNS and with SNB-75 CNS was above 10 µM in each case. Further, the TGI in the test with SR leukemia and in the test on T-47D breast was above 10 µM each time.
